Test results published in patent publication US20130150340A1, “6-(4-Hydroxy-phenyl)-1H-pyrazolo[3,4-b]pyridine-4-carboxylic acid amide derivatives as kinase inhibitors” (SANOFI, priority 2011, published 2013).

Target: T1, human full-length recombinant PKC βII (Homo sapiens, UniProt P05771)
T1 construct: Active human full-length recombinant PKC βII; purchased Invitrogen GmbH, Darmstadt, Germany
Experiment: Determination of PKC βII inhibition (Caliper mobility-shift kinase assay)
Type: biochemical
Conditions: example compounds at a final concentration of 1.14 μM (±0.15 μM); 60 min incubation at 32° C.
Description: Determination of PKC 3H Inhibition
PKC βII inhibition was determined according to the following protocol:
Active human full-length recombinant PKC βII and the peptide substrate, Fluorescein-RFARKGSLRQKNV, were purchased from Invitrogen GmbH, Darmstadt, Germany. Adenosine-5′-triphosphate (ATP), bovine serum albumine (BSA), dimethylsulphoxide (DMSO), 4-(2-hydroxyethyl)piperazine-1-ethanesulfonic acid (Hepes), Triton X-100, 1,2-Dioleoyl-sn-glycerol (DAG), L-α-Phosphatidyl-L-serine (PS), calcium chloride (CaCl2), and Pluronic F-68 were purchased from Sigma-Aldrich, Munich, Germany. Magnesium chloride, 1 M sodium hydroxide solution, 1M hydrochloric acid solution and EDTA were obtained from Merck Biosciences, Darmstadt, Germany.
Test compounds were diluted to three times the test concentration in buffer 1 (30 mM Hepes-NaOH, pH 7.4, 0.01% Pluronic F-68 and 3% (v/v) DMSO). The PKC βII enzyme was diluted to a concentration of 30 ng/ml in buffer 2 (30 mM Hepes-NaOH, pH 7.4, 15 mM MgCl2, 150 μM CaCl2, 150 μg/ml PS, 60 μg/ml DAG, and 0.045% (w/v) Triton X-100). The peptide substrate and ATP were diluted to concentrations of 3 μM and 120 μM, respectively, in buffer 2. Two μl of the compound solution were mixed with 2 μl of the diluted enzyme in a 384-well small volume microtiter plate (Greiner, Bio-One, Frickenhausen, Germany), and the kinase reaction was initiated by addition of 2 μl of the solution containing peptide substrate and ATP. After 60 min incubation at 32° C., the reaction was stopped by addition of 20 μl of a solution containing 130 mM Hepes-NaOH, pH 7.4, 0.0195% (v/v) Brij-35, 6.5 mM EDTA, 0.13% chip coating reagent 3 (Caliper Lifescience Inc, Hopkinton, Mass.) and 6.5% (v/v) DMSO. Phosphorylation of the substrate peptide was then detected on a Caliper 3000 instrument essentially as described by Pommereau et al (J. Biomol. Screening 2004, 9(5), […]), Separation conditions were as follows: Pressure −0.8 psi, upstream voltage −3000 V, downstream voltage −800 V. Positive controls (buffer 1 instead of compound) and negative controls (buffer 1 instead of compound and buffer 2 instead of kinase solution) were run in parallel on each plate. Fractional turnover (R) was determined as the height of the peak of the phosphorylated peptide product divided by the sum of the unphosphorylated substrate and phosphorylated product peak heights. Percent-inhibition values for the test compounds were determined using the formula
% Inhibition=100*(1−(Rcompound−Rnegative control)/(Rpositive control−Rnegative control).

T1 sequence (P05771 1-673 isoform P05771-2): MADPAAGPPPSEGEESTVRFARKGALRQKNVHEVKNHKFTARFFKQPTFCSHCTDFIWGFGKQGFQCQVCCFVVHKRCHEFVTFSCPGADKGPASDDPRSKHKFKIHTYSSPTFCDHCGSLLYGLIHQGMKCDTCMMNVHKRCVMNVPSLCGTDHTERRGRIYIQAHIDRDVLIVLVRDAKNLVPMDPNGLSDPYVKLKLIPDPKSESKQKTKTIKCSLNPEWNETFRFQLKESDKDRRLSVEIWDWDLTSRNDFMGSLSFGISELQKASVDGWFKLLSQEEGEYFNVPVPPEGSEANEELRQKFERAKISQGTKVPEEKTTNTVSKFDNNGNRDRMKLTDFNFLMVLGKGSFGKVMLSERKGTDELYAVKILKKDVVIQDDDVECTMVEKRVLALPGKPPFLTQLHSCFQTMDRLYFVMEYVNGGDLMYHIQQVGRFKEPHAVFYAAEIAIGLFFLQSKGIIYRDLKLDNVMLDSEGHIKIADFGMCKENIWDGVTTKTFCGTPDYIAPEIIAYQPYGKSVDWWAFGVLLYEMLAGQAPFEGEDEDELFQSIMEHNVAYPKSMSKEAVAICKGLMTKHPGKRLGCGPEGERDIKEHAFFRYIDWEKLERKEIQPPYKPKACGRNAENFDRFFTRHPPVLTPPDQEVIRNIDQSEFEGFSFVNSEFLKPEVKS

Row | SMILES | inhibition at 1.14 µM
1 | CO[C@H]1CNC[C@@H]1NC(=O)c1cc(-c2ccc(O)cc2)nc2[nH]ncc12 (racemic) [Example 29, 6-(4-Hydroxy-phenyl)-1H-pyrazolo[3,4-b]pyridine-4-carboxylic acid (trans-4-methoxy-pyrrolidin-3-yl)-amide] | 87%
2 | N[C@H]1C[C@@H]1NC(=O)c1cc(-c2ccc(O)cc2)nc2[nH]ncc12 (racemic) [Example 51, 6-(4-Hydroxy-phenyl)-1H-pyrazolo[3,4-b]pyridine-4-carboxylic acid (trans-2-amino-cyclopropyl)-amide] | 55%
3 | CC1(C)CC(NC(=O)c2cc(-c3ccc(O)cc3)nc3[nH]ncc23)CC(C)(C)N1 [Example 1, 6-(4-Hydroxy-phenyl)-1H-pyrazolo[3,4-b]pyridine-4-carboxylic acid (2,2,6,6-tetramethyl-piperidin-4-yl)-amide] | 18%
4 | O=C(NC1CCNCC1)c1cc(-c2ccc(O)cc2)nc2[nH]ncc12 [Example 2, 6-(4-Hydroxy-phenyl)-1H-pyrazolo[3,4-b]pyridine-4-carboxylic acid piperidin-4-ylamide] | 27%
5 | NC1CCCN(C(=O)c2cc(-c3ccc(O)cc3)nc3[nH]ncc23)C1 (stereo not drawn) [Example 3, (3-Amino-piperidin-1-yl)-[6-(4-hydroxy-phenyl)-1H-pyrazolo[3,4-b]pyridin-4-yl]-methanone] | 95%
6 | O=C(c1cc(-c2ccc(O)cc2)nc2[nH]ncc12)N1CCNCC1 [Example 4, [6-(4-Hydroxy-phenyl)-1H-pyrazolo[3,4-b]pyridin-4-yl]-piperazin-1-yl-methanone] | 88%
7 | O=C(NC1CCNC1)c1cc(-c2ccc(O)cc2)nc2[nH]ncc12 (stereo not drawn) [Example 5, 6-(4-Hydroxy-phenyl)-1H-pyrazolo[3,4-b]pyridine-4-carboxylic acid pyrrolidin-3-ylamide] | 85%
8 | CO[C@H]1CNC[C@@H]1NC(=O)c1cc(-c2ccc(O)cc2)nc2[nH]ncc12 [Example 6, 6-(4-Hydroxy-phenyl)-1H-pyrazolo[3,4-b]pyridine-4-carboxylic acid ((3S,4S)-4-methoxy-pyrrolidin-3-yl)-amide] | 87%
9 | O=C(c1cc(-c2ccc(O)cc2)nc2[nH]ncc12)N1CCCNCC1 [Example 7, [1,4]Diazepan-1-yl-[6-(4-hydroxy-phenyl)-1H-pyrazolo[3,4-b]pyridin-4-yl]-methanone] | 84%
10 | N[C@H]1CC[C@@H](NC(=O)c2cc(-c3ccc(O)cc3)nc3[nH]ncc23)CC1 [Example 8, 6-(4-Hydroxy-phenyl)-1H-pyrazolo[3,4-b]pyridine-4-carboxylic acid (cis-4-amino-cyclohexyl)-amide] | 46%
11 | N[C@H]1CC[C@H](NC(=O)c2cc(-c3ccc(O)cc3)nc3[nH]ncc23)CC1 [Example 9, 6-(4-Hydroxy-phenyl)-1H-pyrazolo[3,4-b]pyridine-4-carboxylic acid (trans-4-amino-cyclohexyl)-amide] | 82%
12 | CC1(C)CNCCN1C(=O)c1cc(-c2ccc(O)cc2)nc2[nH]ncc12 [Example 10, (2,2-Dimethyl-piperazin-1-yl)-[6-(4-hydroxy-phenyl)-1H-pyrazolo[3,4-b]pyridin-4-yl]-methanone] | 96%
13 | N[C@H]1CC[C@H](CNC(=O)c2cc(-c3ccc(O)cc3)nc3[nH]ncc23)CC1 [Example 11, 6-(4-Hydroxy-phenyl)-1H-pyrazolo[3,4-b]pyridine-4-carboxylic acid (trans-4-amino-cyclohexylmethyl)-amide] | 87%
14 | N[C@H]1CC[C@@H](CNC(=O)c2cc(-c3ccc(O)cc3)nc3[nH]ncc23)CC1 [Example 12, 6-(4-Hydroxy-phenyl)-1H-pyrazolo[3,4-b]pyridine-4-carboxylic acid (cis-4-amino-cyclohexylmethyl)-amide] | 46%
15 | O=C(NCC1CNC1)c1cc(-c2ccc(O)cc2)nc2[nH]ncc12 [Example 13, 6-(4-Hydroxy-phenyl)-1H-pyrazolo[3,4-b]pyridine-4-carboxylic acid (azetidin-3-ylmethyl)-amide] | 39%
16 | NC1CC(NC(=O)c2cc(-c3ccc(O)cc3)nc3[nH]ncc23)C1 (stereo not drawn) [Example 14, 6-(4-Hydroxy-phenyl)-1H-pyrazolo[3,4-b]pyridine-4-carboxylic acid (3-amino-cyclobutyl)-amide] | 69%
17 | CC(C)C1CN(C(=O)c2cc(-c3ccc(O)cc3F)nc3[nH]ncc23)C(C)(C)CN1 (stereo not drawn) [Example 15, [6-(2-Fluoro-4-hydroxy-phenyl)-1H-pyrazolo[3,4-b]pyridin-4-yl]-(5-isopropyl-2,2-dimethyl-piperazin-1-yl)-methanone] | 94%
18 | N[C@@H]1CCN(C(=O)c2cc(-c3ccc(O)cc3)nc3[nH]ncc23)C1 [Example 16, ((R)-3-Amino-pyrrolidin-1-yl)-[6-(4-hydroxy-phenyl)-1H-pyrazolo[3,4-b]-pyridin-4-yl]-methanone] | 66%
19 | N[C@H]1CCN(C(=O)c2cc(-c3ccc(O)cc3)nc3[nH]ncc23)C1 [Example 17, ((S)-3-Amino-pyrrolidin-1-yl)-[6-(4-hydroxy-phenyl)-1H-pyrazolo[3,4-b]pyridin-4-yl]-methanone] | 64%
20 | O=C(N[C@H]1CN2CCC1CC2)c1cc(-c2ccc(O)cc2)nc2[nH]ncc12 [Example 18, 6-(4-Hydroxy-phenyl)-1H-pyrazolo[3,4-b]pyridine-4-carboxylic acid-(R)-(1-Aza-bicyclo[2.2.2]oct-3-yl)amide] | 72%
21 | O=C(N[C@@H]1CCCNC1)c1cc(-c2ccc(O)cc2)nc2[nH]ncc12 [Example 19, 6-(4-Hydroxy-phenyl)-1H-pyrazolo[3,4-b]pyridine-4-carboxylic acid (R)-piperidin-3-ylamide] | 83%
22 | O=C(c1cc(-c2ccc(O)cc2)nc2[nH]ncc12)N1CC2(CCNCC2)C1 [Example 20, (2,7-Diaza-spiro[3.5]non-2-yl)-[6-(4-hydroxy-phenyl)-1H-pyrazolo[3,4-b]pyridin-4-yl]-methanone] | 77%
23 | O=C(c1cc(-c2ccc(O)cc2)nc2[nH]ncc12)N1CCC2(CC1)CNC2 [Example 21, (2,7-Diaza-spiro[3.5]non-7-yl)-[6-(4-hydroxy-phenyl)-1H-pyrazolo[3,4-b]pyridin-4-yl]-methanone] | 59%
24 | O=C(c1cc(-c2ccc(O)cc2)nc2[nH]ncc12)N1CCC2(CCNCC2)C1 [Example 22, (2,8-Diaza-spiro[4.5]dec-2-yl)-[6-(4-hydroxy-phenyl)-1H-pyrazolo[3,4-b]pyridin-4-yl]-methanone] | 42%
25 | O=C(c1cc(-c2ccc(O)cc2)nc2[nH]ncc12)N1CCC2(CCCNC2)C1 (stereo not drawn) [Example 23, (2,7-Diaza-spiro[4.5]dec-2-yl)-[6-(4-hydroxy-phenyl)-1H-pyrazolo[3,4-b]pyridin-4-yl]-methanone] | 52%
26 | O=C(c1cc(-c2ccc(O)cc2)nc2[nH]ncc12)N1CCCC2(CCNC2)C1 (stereo not drawn) [Example 24, (2,7-Diaza-spiro[4.5]dec-7-yl)-[6-(4-hydroxy-phenyl)-1H-pyrazolo[3,4-b]pyridin-4-yl]-methanone] | 29%
27 | O=C(c1cc(-c2ccc(O)cc2)nc2[nH]ncc12)N1CCC2(CCNC2)C1 (stereo not drawn) [Example 25, (2,7-Diaza-spiro[4.4]non-2-yl)-[6-(4-hydroxy-phenyl)-1H-pyrazolo[3,4-b]pyridin-4-yl]-methanone] | 58%
28 | O=C(c1cc(-c2ccc(O)cc2)nc2[nH]ncc12)N1CCC2(CC1)CNCCO2 [Example 26, [6-(4-Hydroxy-phenyl)-1H-pyrazolo[3,4-b]pyridin-4-yl]-(1-oxa-4,9-diaza-spiro[5.5]undec-9-yl)-methanone] | 36%
29 | O=C(c1cc(-c2ccc(O)cc2)nc2[nH]ncc12)N1CCOC2(CCCNC2)C1 (stereo not drawn) [Example 27, [6-(4-Hydroxy-phenyl)-1H-pyrazolo[3,4-b]pyridin-4-yl]-(1-oxa-4,8-diaza-spiro[5.5]undec-4-yl)-methanone] | 42%
30 | O=C(c1cc(-c2ccc(O)cc2)nc2[nH]ncc12)N1CCCC2(CNCCO2)C1 (stereo not drawn) [Example 28, [6-(4-Hydroxy-phenyl)-1H-pyrazolo[3,4-b]pyridin-4-yl]-(1-oxa-4,8-diaza-spiro[5.5]undec-8-yl)-methanone] | 15%
